Where “and” joins values, the source holds several entries; their conditions need not be identical. Identical values can stand only once.
System: BDF1 mice, Adenocarcinoma 755 s.c., tumor weight T/C
Assay: NCI In Vivo Anticancer Drug Screen. Data for tumor model Adenocarcinoma 755 (subcutaneous) in B6D2F1 (BDF1) mice
Conditions: endpoint: mean tumor weight, higher = larger tumour
Method in brief: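 Values express treated (T) relative to vehicle-dosed control (C) animals, based on survival or tumour size measured after compound treatment of mice bearing a transplanted tumour.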

[1] = dose: 100.0 mg/kg/injection, schedule: Q01DX011 (ip), vehicle: carboxymethylcellulose (CMC)
[2] = dose: 30.0 mg/kg/injection, schedule: Q01DX011 (ip), vehicle: carboxymethylcellulose (CMC)

O=C1C(NC(=O)C2CCCCC2)=C(N2CC2)C(=O)C(NC(=O)C2CCCCC2)=C1N1CC1
T/C (dose: 43.75 mg/kg/injection, schedule: Q01DX011 (ip), vehicle: carboxymethylcellulose (CMC)): 48 % of control | T/C (dose: 44.0 mg/kg/injection, schedule: Q01DX011 (ip), vehicle: carboxymethylcellulose (CMC)): 67 % of control | T/C (dose: 44.0 mg/kg/injection, schedule: Q01DX011 (ip), vehicle: other): 76 % of control | T/C (dose: 87.5 mg/kg/injection, schedule: Q01DX011 (ip), vehicle: carboxymethylcellulose (CMC)): 9 % of control and 30 % of control | T/C (dose: 88.0 mg/kg/injection, schedule: Q01DX011 (ip), vehicle: other): 21 % of control | T/C [1]: 104 % of control | T/C (dose: 175.0 mg/kg/injection, schedule: Q01DX011 (ip), vehicle: carboxymethylcellulose (CMC)): 12 % of control and 33 % of control | T/C (dose: 175.0 mg/kg/injection, schedule: Q01DX011 (ip), vehicle: other): 28 % of control | T/C (dose: 200.0 mg/kg/injection, schedule: Q01DX011 (oral), vehicle: carboxymethylcellulose (CMC)): 93 % of control | T/C (dose: 400.0 mg/kg/injection, schedule: Q01DX011 (oral), vehicle: carboxymethylcellulose (CMC)): 50 % of control | T/C (dose: 800.0 mg/kg/injection, schedule: Q01DX011 (oral), vehicle: carboxymethylcellulose (CMC)): 68 % of control

Cc1ccc(N2CCN(CCCN3CCN(c4ccc(Cl)cc4)CC3)CC2)cc1
T/C (dose: 0.05 mg/kg/injection, schedule: Q01DX011 (ip), vehicle: carboxymethylcellulose (CMC)): 100 % of control | T/C (dose: 0.09 mg/kg/injection, schedule: Q01DX011 (ip), vehicle: carboxymethylcellulose (CMC)): 66 % of control | T/C (dose: 0.18 mg/kg/injection, schedule: Q01DX011 (ip), vehicle: carboxymethylcellulose (CMC)): 116 % of control | T/C (dose: 0.37 mg/kg/injection, schedule: Q01DX011 (ip), vehicle: carboxymethylcellulose (CMC)): 104 % of control | T/C (dose: 0.75 mg/kg/injection, schedule: Q01DX011 (ip), vehicle: methylcellulose (MC)): 38 % of control | T/C (dose: 1.5 mg/kg/injection, schedule: Q01DX011 (ip), vehicle: methylcellulose (MC)): 37 % of control | T/C (dose: 12.5 mg/kg/injection, schedule: Q01DX011 (ip), vehicle: methylcellulose (MC)): 76 % of control | T/C (dose: 25.0 mg/kg/injection, schedule: Q01DX011 (ip), vehicle: methylcellulose (MC)): 48 % of control | T/C (dose: 50.0 mg/kg/injection, schedule: Q01DX011 (ip), vehicle: methylcellulose (MC)): 42 % of control and 46 % of control

Nc1nc(=S)c2ncn(C3OC(COC(=O)c4ccc([N+](=O)[O-])cc4)C(OC(=O)c4ccc([N+](=O)[O-])cc4)C3OC(=O)c3ccc([N+](=O)[O-])cc3)c2[nH]1 (stereo not drawn)
T/C (dose: 12.5 mg/kg/injection, schedule: Q01DX011 (ip), vehicle: carboxymethylcellulose (CMC)): 34 % of control | T/C (dose: 25.0 mg/kg/injection, schedule: Q01DX011 (ip), vehicle: carboxymethylcellulose (CMC)): 20 % of control

S=c1nc[nH]c2c1ncn2C1CCCS1 (stereo not drawn)
T/C (dose: 75.0 mg/kg/injection, schedule: Q01DX011 (ip), vehicle: methylcellulose (MC)): 114 % of control | T/C (dose: 225.0 mg/kg/injection, schedule: Q01DX011 (ip), vehicle: methylcellulose (MC)): 43 % of control

CN(C)N=Nc1ccc(C(=O)NN)cc1
T/C (dose: 75.0 mg/kg/injection, schedule: Q01DX011 (ip), vehicle: carboxymethylcellulose (CMC)): 31 % of control | T/C [1]: 15 % of control

Cc1cc(NC(=O)c2ccc(C(=O)Nc3ccc(N=Nc4cc(S(=O)(=O)O)c5cccc(S(=O)(=O)O)c5c4)c(C)c3)cc2)ccc1N=Nc1cc(S(=O)(=O)O)c2cccc(S(=O)(=O)O)c2c1
T/C [2]: 114 % of control

ClCCN(CCCl)c1ccc(/C=C\c2ccnc3ccccc23)cc1
T/C [2]: 65 % of control and 75 % of control | T/C (dose: 115.0 mg/kg/injection, schedule: Q01DX011 (ip), vehicle: carboxymethylcellulose (CMC)): 47 % of control and 69 % of control | T/C (dose: 230.0 mg/kg/injection, schedule: Q01DX011 (ip), vehicle: carboxymethylcellulose (CMC)): 71 % of control

O=CCC(O)C(O)C(O)CO (stereo not drawn)
T/C (dose: 125.0 mg/kg/injection, schedule: Q01DX011 (ip), vehicle: carboxymethylcellulose (CMC)): 106 % of control and 122 % of control

CC(=O)Nc1c(Cl)c(Cl)c2c(c1Cl)Cc1cc(Cl)ccc1-2
T/C (dose: 27.0 mg/kg/injection, schedule: Q01DX011 (ip), vehicle: acetone): 87 % of control | T/C (dose: 55.0 mg/kg/injection, schedule: Q01DX011 (ip), vehicle: acetone): 31 % of control | T/C (dose: 110.0 mg/kg/injection, schedule: Q01DX011 (ip), vehicle: other): 46 % of control | T/C (dose: 110.0 mg/kg/injection, schedule: Q01DX011 (ip), vehicle: saline): 31 % of control | T/C (dose: 225.0 mg/kg/injection, schedule: Q01DX011 (ip), vehicle: other): 32 % of control | T/C (dose: 225.0 mg/kg/injection, schedule: Q01DX011 (ip), vehicle: saline): 8 % of control | T/C (dose: 450.0 mg/kg/injection, schedule: Q01DX011 (ip), vehicle: other): 19 % of control

— PubChem BioAssay AID180 (DTP/NCI, 2004)
